Experimental data from patent publication US10301263B2, “Anticonvulsant compound” (Royal Holloway and Bedford New College, priority 2014, dated 2019).
pIC50: −log10 of the molar value.

Columns and labels:
AMPA receptors = test: AMPA receptor mediated current, AMPA receptors expressed in oocytes (FIG. 1); assay type: cell-based
Experimental: Xenopus laevis oocytes were purchased from the European Xenopus Resource Centre, University of Portsmouth.
The bath solutions were perfused at a rate of 10 ml/min.

[1] = system: rat entorhinal cortex-hippocampus slices; test: PTZ-induced epileptiform activity in entorhinal cortex-hippocampus slices (CA1 field recording); assay type: cell-based
Experimental: The preparation of entorhinal cortex-hippocampus slices and electrophysiological recording in CA1 were described previously (Armand et al., 1998; Chang and Walker, 2011). In brief, male rats (50-150 g) were decapitated after killing by intraperitoneal injection with an overdose of pentobarbitone (500 mg/kg). The brain was removed and preserved in oxygenated ice-cold sucrose solution in mM: NaCl 87, KCl 2.5, MgCl2 7, CaCl2 0.5, NaH2PO4 1.25, NaHCO3 26.2 sucrose 75, glucose 3. Transverse slices (350 μm) were prepared with a vibratome (VIBRATOME® 1500, Intracel Ltd) and were then stored in an interface chamber containing artificial cerebrospinal fluid solution (aCSF) in mM: NaCl 119, KCl 2.5, MgSO4 1.3, CaCl2 2.5, NaH2PO4 1, NaHCO3 26.2 glucose 16.6. The slices were stored for over one hour. During the experiment, the slices were transferred from the interface chamber into a submerged recording chamber and continuously perfused with prewarmed (about 36° C.) oxygenated (95% O2, 5% CO2) aCSF. A field potential recording was made by placing a glass microelectrodes filled with aCSF solution in stratum radiatum of CA1. A bipolar stimulating electrode was positioned in the Schaffer collateral/commissural fiber pathway in stratum radiatum to confirm slice viability. […] Anticonvulsant effects were evaluated by measuring the frequency of the discharges every minute.

[2] = system: histone deacetylase (HDAC); test: HDAC activity assay (fluorescent kit, human nuclear enzyme extracts from HeLa cells); assay type: biochemical
Experimental: FIG. 4b is a graph showing quantification of a histone deacetylase (HDAC) inhibition assay employing human nuclear enzyme extracts (from HeLa cells) as the source of HDAC activity shown as fitted dose-response curves for 4-BCCA;
Histone deacetylase activity was analyzed by using an in vitro commercial assay kit, the HDAC fluorescent activity assay/drug discovery kit HDAC activity (Biomol, Plymouth Meeting, Pa.). The assay was conducted at room temperature according to the manufacturer's protocol, using Trichostatin A (a HDAC inhibitor; at 1 μM concentration) as a positive control. Data were derived from at least triplicate experiments with each experiment comprising at least duplicate measurements (n=6) normalized to controls (without VPA or fatty acids).

[3] = system: 6 Hz corneal stimulation seizures in CF1 mice; test: 6 Hz psychomotor seizure test; assay type: in vivo; settings: Mus musculus, ip, 32 mA for 3 s
Experimental: Adult male CF1 mice (18-25 g) were pretreated intraperitoneally (i.p.) with each compound at 100-150 mg/kg. After pretreatment, each mouse was given a drop of 0.5% tetracaine hydrochloride to each eye, following by low-frequency (6 Hz) stimulation (32 mA) for 3 seconds delivered through corneal electrodes. Animals were manually restrained and released immediately following the stimulation and observed for the presence or absence of seizure activity at five time points (1/4, 1/2, 1, 2, and 4 hours). Typically, the 6 Hz stimulation results in a seizure characterized by a minimal clonic phase that is followed by stereotyped, automatistic behaviors, including twitching of the vibrissae, and Straub-tail. Animals not displaying such behaviors were considered protected.
The inventors first employed a low frequency (6 Hz), long duration (3 s) corneal stimulation model because numerous second generation anti-epileptic drugs show poor seizure control in this assay (and so such a model may provide evidence of efficacy in drug resistant epilepsy). In this model, compounds are pre-administered to mice via i.p. injection and mice are challenged with sufficient current to elicit a psychomotor response (32 mA for 3 s) (Toman et al., 1952). The model causes forelimb clonus and then automatistic behavior characteristic of limbic epilepsy in humans. […]

MES-induced seizures = test: Maximal electroshock test (MES); assay type: in vivo, mice; settings: Mus musculus, ip
Experimental: The MES is a model for generalized tonic-clonic seizures which provides an indication of a compound's ability to prevent seizure spread when all neuronal circuits in the brain are maximally active. Animals are pretreated with compounds (100-125 mg/kg) by i.p. injection. Seizure activity was induced by delivery of 60 Hz of alternating current (50 mA in mice, 150 in rats) for 0.2 s through corneal electrodes which had been primed with an electrolyte solution containing an anesthetic agent (0.5% tetracaine HCl). An animal is considered “protected” from MES-induced seizures upon abolition of the hind limb tonic extensor component of the seizure (Swinyard et al., 1995; White et al., 1995; White et al., 2007).

[4] = system: Metrazol-induced clonic seizures; test: Subcutaneous Metrazol seizure threshold test (scMET); assay type: in vivo, mice; settings: i.p.
Experimental: Subcutaneous injection of Metrazol produces clonic seizures in animals. […] Animals were pretreated with each compound (100 mg/kg) in a similar manner to the MES test. Seizure activity was induced by administration of Metrazol (CD97: 85 mg/kg mice; 70 mg/kg rats) into skin in the midline of the neck.

corneal kindled CF1 mice [5] = test: Corneal kindled mouse model (CKM); assay type: in vivo; settings: i.p.
Experimental: This model involves the use of corneal kindled mouse model for prediction of efficacy in human partial seizures (Rowley and White, 2010). Adult male CF1 mice (18-25 g) mice were stimulated through corneal electrodes (3 mA, 60 Hz, 3 seconds) after administration of 0.5% tetracaine hydrochloride to each eye. This procedure was carried out twice daily for an average of 12 days.
After 5-7-days stimulation-free period once the mice were fully kindled, the test compounds were administrated (100 mg/kg, i.p.). Mice in each group were then tested at various time points (0.25, 0.5, 1, 2, 4 hours) after drug dosing. Mice displaying a seizure score <3 are considered protected.

[6] = system: rat entorhinal cortex-hippocampus slices; settings: PTZ-induced seizure-like activity in rat hippocampal slices; Chang et al., 2013; cited from earlier work
[7] = system: Metrazol-induced clonic seizures; settings: scMET; Rowley and White, 2010; cited from earlier work
corneal kindled CF1 mice [8] = settings: corneal kindled mouse; cited from earlier work
[9] = DSMV IV, 2000; cited from earlier work

| potency of AMPA receptors inhibition (as determined by IC50) relative to decanoic acid (DA) and 4-ethyloctanoic acid (4-EOA) (AMPA receptors) | HDAC inhibition ([2]; FIG. 4B dose-response) | EC50 value (corneal kindled CF1 mice [5]) [mg/kg] | pIC50 ([2]; HDAC extract derived from a human cell line, read-out: IC50 against HDAC) | SMILES | epileptiform activity (frequency of PTZ-induced burst discharges) ([1]; PTZ 2 mM, K+ 6 mM, 20-40 minute treatment, n=5, 1 mM) | block in seizure activity ([1]; PTZ-induced seizure-like activity in rat hippocampal slices) [%] | HDAC inhibitory effect ([2]; upto 10 mM, HDAC extract derived from a human cell line) | ED50 [3] [mg/kg] | ED50 (MES-induced seizures) [mg/kg] | EC50 value [4] [mg/kg] | reduction in seizure activity [6] [%] | equivalent effect (to EC50) dose [7] [mg/kg] | equivalent activity (to EC50) dose (corneal kindled CF1 mice [8]) [mg/kg] | concentrations found in plasma [9] [µM] |
| --- | --- | --- | --- | --- | --- | --- | --- | --- | --- | --- | --- | --- | --- | --- |
| comparable potency | no HDAC inhibition | 44 |  | CCCC[C@H]1CC[C@H](C(=O)O)CC1 [Compound 4-BCCA, trans-4-butylcyclohexane carboxylic acid] | 1.7±1.5 % of baseline | 100 | does not cause significant inhibitory effect | 81 | 100 | ~150 |  |  |  |  |
|  |  |  | 2.64 | CCCC(CCC)C(=O)O [valproic acid, 2-propylpentanoic acid] |  |  |  |  |  |  | 23 | 191 | 174 | 400 to 700 |
